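Grown in 96-well plates, cells were treated for 48 hours with each compound at five concentrations. Insufficient inhibition: endpoint recorded as highest concentration tested. GI50 marks 50% less growth.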 Active and inactive are the calls of the source. Rule as the data show it: active = GI50 up to about 1.1 µM and inactive = higher.
What was measured:
Assay in all cases: growth of human tumour cells (NCI), 48 h
[1] = tested on: A549
[2] = tested on: ACHN
[3] = tested on: HL-60
[4] = tested on: HOP-92
[5] = tested on: HT-29
[6] = tested on: K562
[7] = tested on: LOX IMVI
[8] = tested on: MDA-MB-231
[9] = tested on: MDA-N
[10] = tested on: MOLT-4
[11] = tested on: NCI-H23
[12] = tested on: NCI/ADR-RES
[13] = tested on: OVCAR-4
[14] = tested on: OVCAR-5
[15] = tested on: OVCAR-8
[16] = tested on: PC-3
[17] = tested on: SK-MEL-28
[18] = tested on: SK-OV-3
[19] = tested on: SNB-19
[20] = tested on: SR

Row | SMILES | GI50 [1] | GI50 [2] | GI50 [3] | GI50 [4] | GI50 [5] | GI50 [6] | GI50 [7] | GI50 [8] | GI50 [9] | GI50 [10] | GI50 [11] | GI50 [12] | GI50 [13] | GI50 [14] | GI50 [15] | GI50 [16] | GI50 [17] | GI50 [18] | GI50 [19] | GI50 [20]
1 | O=C(NCCCCCCNC(=O)c1cc(-c2ccccc2)nc2ccccc12)c1cc(-c2ccccc2)nc2ccccc12 | > 100 µM (inactive) | > 100 µM (inactive) | > 100 µM (inactive) | > 100 µM (inactive) | > 100 µM (inactive) | > 100 µM (inactive) | > 100 µM (inactive) | > 100 µM (inactive) | > 100 µM (inactive) | > 100 µM (inactive) | > 100 µM (inactive) | > 100 µM (inactive) | > 100 µM (inactive) | > 100 µM (inactive) | > 100 µM (inactive) | > 100 µM (inactive) | > 100 µM (inactive) | > 100 µM (inactive) | > 100 µM (inactive) | > 100 µM (inactive)
2 | O=C1c2ccccc2C(=O)c2c1ccc1c2OCO1 | > 100 µM (inactive) | > 10 µM (inactive) | > 100 µM (inactive) | > 100 µM (inactive) | > 100 µM (inactive) |  | > 100 µM (inactive) | > 100 µM (inactive) | > 100 µM (inactive) | > 100 µM (inactive) | > 100 µM (inactive) | > 100 µM (inactive) | > 100 µM (inactive) | > 100 µM (inactive) | > 100 µM (inactive) | > 100 µM (inactive) | > 100 µM (inactive) | > 100 µM (inactive) | > 100 µM (inactive) | > 100 µM (inactive)
3 | CCOC(=O)N1CCN(c2ccc3ccc(N)nc3n2)CC1 | > 100 µM (inactive) | > 100 µM (inactive) | > 100 µM (inactive) | > 100 µM (inactive) | 80.2 µM (inactive) | > 100 µM (inactive) | > 100 µM (inactive) | > 100 µM (inactive) | > 100 µM (inactive) | 74.1 µM (inactive) | > 100 µM (inactive) | > 100 µM (inactive) | > 100 µM (inactive) | > 100 µM (inactive) | > 100 µM (inactive) | > 100 µM (inactive) | > 100 µM (inactive) | > 100 µM (inactive) | > 100 µM (inactive) | > 100 µM (inactive)
4 | Cc1nc2ccc([N+](=O)[O-])cc2c(=O)n1C(=S)Nc1cccc(Cl)c1 | 23.2 µM (inactive) | 17.5 µM (inactive) | 14.2 µM (inactive) | 3.5 µM (inactive) | 17.7 µM (inactive) | 20.7 µM (inactive) | 12.9 µM (inactive) | 15.5 µM (inactive) | 16.4 µM (inactive) | 17.9 µM (inactive) | 13.8 µM (inactive) | 19.4 µM (inactive) | 19.5 µM (inactive) | 28.2 µM (inactive) |  | 15.2 µM (inactive) | 17.6 µM (inactive) | 22.5 µM (inactive) | 27.8 µM (inactive) | 31 µM (inactive)
5 | Cc1c(F)c(N)c2c(=O)cc(-c3ccc(NC(=O)C(N)CCCNC(=N)N)c(F)c3)oc2c1F (centres undefined) | 3.68 µM (inactive) | 19.7 µM (inactive) | > 52 µM (inactive) | 49.5 µM (inactive) | > 71.8 µM (inactive) |  | 38.1 µM (inactive) | 22.5 µM (inactive) | 32.1 µM (inactive) | 34.6 µM (inactive) | 27.9 µM (inactive) | 23.9 µM (inactive) | 0.141 µM (active) | 0.299 µM (active) | 32.1 µM (inactive) | 30.5 µM (inactive) | 24.7 µM (inactive) | > 44.5 µM (inactive) | 24.8 µM (inactive) | 43 µM (inactive)
6 | COc1ccc(-c2c3c(n(C4OC(CO)C(O)C(O)C4O)c(=S)c2C#N)CC(C)(C)CC3=O)cc1 (centres undefined) | > 100 µM (inactive) | > 100 µM (inactive) | > 100 µM (inactive) | > 100 µM (inactive) | > 100 µM (inactive) | > 100 µM (inactive) | > 100 µM (inactive) | > 100 µM (inactive) | > 100 µM (inactive) | 79.4 µM (inactive) | > 100 µM (inactive) | > 100 µM (inactive) | > 100 µM (inactive) | > 100 µM (inactive) | > 100 µM (inactive) | > 100 µM (inactive) | > 100 µM (inactive) |  | > 100 µM (inactive) | 74.5 µM (inactive)
7 | C/N=c1/oc2ccccc2cc1C(N)=O | > 100 µM (inactive) | > 100 µM (inactive) | > 100 µM (inactive) | > 100 µM (inactive) | > 100 µM (inactive) | > 100 µM (inactive) | > 100 µM (inactive) | > 100 µM (inactive) | > 100 µM (inactive) | > 100 µM (inactive) | > 100 µM (inactive) | > 100 µM (inactive) |  |  | > 100 µM (inactive) | > 100 µM (inactive) | > 100 µM (inactive) | > 100 µM (inactive) | 56.4 µM (inactive) | > 100 µM (inactive)
8 | CCOC(=O)C1C(=O)C=C(c2cc(C)ccc2O)CC1c1cccc(Br)c1 (centres undefined) | 20.1 µM (inactive) | 18.7 µM (inactive) | 20.9 µM (inactive) | 10.4 µM (inactive) | 18.9 µM (inactive) | 11.7 µM (inactive) | 15.6 µM (inactive) | 19.6 µM (inactive) | 4.05 µM (inactive) | 16 µM (inactive) | 17.5 µM (inactive) | 13.4 µM (inactive) | 0.075 µM (active) | 25.1 µM (inactive) | 30 µM (inactive) | 7.8 µM (inactive) |  | 14.2 µM (inactive) | 13.4 µM (inactive) | 5.13 µM (inactive)
9 | COc1cc(CSc2ccc(O)cc2)cc(O)c1O | 46.7 µM (inactive) | 28.1 µM (inactive) | 19.6 µM (inactive) | 22.7 µM (inactive) | 22.2 µM (inactive) | 31.6 µM (inactive) | 36.2 µM (inactive) | 25.4 µM (inactive) | 26.7 µM (inactive) | 25.3 µM (inactive) | 41.8 µM (inactive) | 23.8 µM (inactive) |  | 23.4 µM (inactive) | 26.2 µM (inactive) | 49.3 µM (inactive) | 46.2 µM (inactive) | > 10 µM (inactive) | 37 µM (inactive) | 21.7 µM (inactive)
10 | O=C1C(Cl)=C(N(C(=O)c2ccccc2)C(=O)c2ccccc2)C(=O)c2ccccc21 | 16.4 µM (inactive) | 3.17 µM (inactive) | 1.08 µM (active) | 13.1 µM (inactive) | 24.7 µM (inactive) | 3.4 µM (inactive) | 25.6 µM (inactive) | 9.71 µM (inactive) | 13.1 µM (inactive) | 55 µM (inactive) | 5.42 µM (inactive) | 29.2 µM (inactive) |  | 12.2 µM (inactive) | 54 µM (inactive) | 9.18 µM (inactive) | 14.9 µM (inactive) | 40.6 µM (inactive) | 26.6 µM (inactive) | 15.5 µM (inactive)
11 | COc1ccc2[nH]c(CCNC(=O)c3cc([N+](=O)[O-])cc([N+](=O)[O-])c3)cc2c1 | > 100 µM (inactive) |  | > 100 µM (inactive) | 21.2 µM (inactive) | > 100 µM (inactive) | > 100 µM (inactive) | 64.1 µM (inactive) | 25.4 µM (inactive) | > 100 µM (inactive) | > 100 µM (inactive) | 47.9 µM (inactive) | > 100 µM (inactive) | > 100 µM (inactive) |  | 44.5 µM (inactive) | > 100 µM (inactive) | > 100 µM (inactive) | 41 µM (inactive) | 35.6 µM (inactive) | > 100 µM (inactive)

— ChEMBL document CHEMBL1201862, “PubChem BioAssay data set” (2004)
